In assay [1] the test system is late watergrass. The assay can be described thus: Test Example 1: herbicidal activity, application before weed generation under submerged conditions (Table 16, symbol A). Type of assay: in vivo, late watergrass (Echinochloa oryzicola). The settings on record: amount of applied herbicide 320 g/ha. An outline of the steps:
(§1)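 Submerged Wagner pots (alluvial soil, 4 cm water) sown with weed seeds and planted with 2.5-leaf rice seedlings; emulsifiable concentrate diluted in water applied to water surface on sowing day. Held in greenhouse at 25-30 °C; injury scored 0-5 by herbicidal rate after three weeks.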

The test system of assay [2] is Japanese bulrush. The assay can be described thus: Test Example 1: herbicidal activity, application before weed generation under submerged conditions (Table 16, symbol B). In kind it is in vivo, Japanese bulrush (Schoenoplectus juncoides). The settings on record: amount of applied herbicide 320 g/ha. An outline of the steps:
as §1

Assay [3] concerns Japanese bulrush. Put plainly: Test Example 2: herbicidal activity, application during weed generation under submerged conditions (Table 17, symbol B). In kind it is in vivo, Japanese bulrush (Schoenoplectus juncoides). Particulars: application during weed generation under submerged conditions; amount of applied herbicide 320 g/ha. An outline of the steps: (§2)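 Mixed weed seedlings in alluvial soil under a 4 cm water layer, greenhouse-grown at 25–30° C. Compound given as a diluted emulsion into the floodwater at the 1–2 leaf stage; response graded after three weeks.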

Assay [4] relates to oval-leafed pondweed. Put plainly: Test Example 2: herbicidal activity, application during weed generation under submerged conditions (Table 17, symbol C). In kind it is in vivo, oval-leafed pondweed (Monochoria vaginalis). The settings on record: application during weed generation under submerged conditions; amount of applied herbicide 320 g/ha. An outline of the steps:
as §2

Assay [5] relates to southern crabgrass. Put plainly: Test Example 4: herbicidal effect by soil treatment (Table 19, symbol F). Type of assay: in vivo, southern crabgrass (Digitaria ciliaris). The settings on record: amount of applied herbicide 320 g/ha. The procedure, abridged:
(§3)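 In this soil treatment, the formulated compound reached the seeds only through the soil: seeds were buried about 1.5 cm deep in sterilized diluvial soil, then the diluted emulsion was sprayed over the surface. After three weeks at 25° C. to 30° C. in a greenhouse, effects were graded on criteria from an earlier test.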

Assay [6] deals with barnyard grass. The assay can be described thus: Test Example 4: herbicidal effect by soil treatment (Table 19, symbol H). Type of assay: in vivo, barnyard grass (Echinochloa crus-galli). The settings on record: amount of applied herbicide 320 g/ha. An outline of the steps: as §3
Assay [7] deals with wild oat. The assay can be described thus: Test Example 4: herbicidal effect by soil treatment (Table 19, symbol I). Type of assay: in vivo, wild oat (Avena fatua). The settings on record: amount of applied herbicide 320 g/ha. The procedure, abridged: as §3
In assay [8] the test system is blackgrass. The assay can be described thus: Test Example 4: herbicidal effect by soil treatment (Table 19, symbol J). Type of assay: in vivo, blackgrass (Alopecurus myosuroides). The settings on record: amount of applied herbicide 320 g/ha. The procedure, abridged: as §3
For assay [9], the system named is Italian ryegrass. Put plainly: Test Example 4: herbicidal effect by soil treatment (Table 19, symbol K). Type of assay: in vivo, Italian ryegrass (Lolium multiflorum). Particulars: amount of applied herbicide 320 g/ha. An outline of the steps: as §3
The test system of assay [10] is redroot pigweed. The assay can be described thus: Test Example 4: herbicidal effect by soil treatment (Table 19, symbol N). In kind it is in vivo, redroot pigweed (Amaranthus retroflexus). The settings on record: amount of applied herbicide 320 g/ha. An outline of the steps: as §3
Assay [11] relates to green foxtail. Put plainly: Test Example 5: herbicidal effect by foliage application, plastic box (Table 20, symbol G). Type of assay: in vivo, green foxtail (Setaria viridis). Particulars: foliage application, 320 g/ha, evaluated 3 weeks after application. An outline of the steps:
(§4)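 Plants were sown into sterilized diluvial soil under about 1.5 cm cover and kept in a greenhouse at 25° C. to 30° C. Fourteen days on, foliage received an even spray of the diluted emulsion. Herbicidal or crop effect was judged three weeks afterwards.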

Assay [12] deals with barnyard grass. Put plainly: Test Example 5: herbicidal effect by foliage application, plastic box (Table 20, symbol H). Particulars: foliage application, 320 g/ha, evaluated 3 weeks after application. In kind it is in vivo, barnyard grass (Echinochloa crus-galli). The procedure, abridged:
as §4

For assay [13], the system named is wild oat. The assay can be described thus: Test Example 5: herbicidal effect by foliage application, plastic box (Table 20, symbol I). In kind it is in vivo, wild oat (Avena fatua). The settings on record: foliage application, 320 g/ha, evaluated 3 weeks after application. An outline of the steps:
as §4

The subject of assay [14] is blackgrass. Put plainly: Test Example 5: herbicidal effect by foliage application, plastic box (Table 20, symbol J). Type of assay: in vivo, blackgrass (Alopecurus myosuroides). The settings on record: foliage application, 320 g/ha, evaluated 3 weeks after application. An outline of the steps:
as §4

In assay [15] the test system is redroot pigweed. Put plainly: Test Example 5: herbicidal effect by foliage application, plastic box (Table 20, symbol N). Type of assay: in vivo, redroot pigweed (Amaranthus retroflexus). Particulars: foliage application, 320 g/ha, evaluated 3 weeks after application. The procedure, abridged:
as §4

Assay [16] has as its system chickweed. The assay can be described thus: Test Example 5: herbicidal effect by foliage application, plastic box (Table 20, symbol P). Type of assay: in vivo, common chickweed (Stellaria media). The settings on record: foliage application, 320 g/ha, evaluated 3 weeks after application. An outline of the steps: as §4
Assay [17] concerns false cleavers. The assay can be described thus: Test Example 4: herbicidal effect by soil treatment (Table 19, symbol Q). Type of assay: in vivo, false cleavers (Galium spurium). Particulars: amount of applied herbicide 320 g/ha. An outline of the steps:
as §3

As to `Cc1ccc2oc(-c3ccc(OCC(C)C)cc3)c(-c3c(O)c(C)nn(C)c3=O)c2c1` [9-051], the “Herbicidal effect, A: late watergrass” value in assay [1] is reported as 5 (Herbicidal rate of 90% or more (almost completely withered)). Besides, the “Herbicidal effect, B: Japanese bulrush” value in [2] was 5 (Herbicidal rate of 90% or more (almost completely withered)). Further, the “herbicidal effect grade, B: Japanese bulrush” value (“herbicidal effect grade, B” below) in assay [3] was 4 (Herbicidal rate of 70% or more and less than 90%). Further, the “herbicidal effect grade, C: oval-leafed pondweed” value (shortened to “herbicidal effect grade, C”) in assay [4] is reported as 5 (Herbicidal rate of 90% or more (almost completely withered)). Also, the “F: southern crabgrass, herbicidal effect grade” value (“F: southern crabgrass” for short) in assay [5] was 1 (Herbicidal rate of 5% or more and less than 20%). Besides, the “H: barnyard grass, herbicidal effect grade” value (from here on “H: barnyard grass”) in assay [6] is 4 (Herbicidal rate of 70% or more and less than 90%). Moreover, the “I: wild oat, herbicidal effect grade” value in assay [7] is 0 (Herbicidal rate of 5% or less (almost no effect)). In [8], the “J: blackgrass, herbicidal effect grade” value is on record as 5 (Herbicidal rate of 90% or more (almost completely withered)). Further, the “K: Italian ryegrass, herbicidal effect grade” value (from here on “K: Italian ryegrass”) in [9] is listed as 5 (Herbicidal rate of 90% or more (almost completely withered)). Besides, the “N: redroot pigweed, herbicidal effect grade” value (“N: redroot pigweed” below) in assay [10] is reported as 5 (Herbicidal rate of 90% or more (almost completely withered)). The “G (green foxtail) herbicidal effect grade” value in assay [11] is on record as 5 (Herbicidal rate of 90% or more (almost completely withered)). Further, the “H (barnyard grass) herbicidal effect grade” value in assay [12] was 4 (Herbicidal rate of 70% or more and less than 90%). The “I (wild oat) herbicidal effect grade” value in assay [13] was 1 (Herbicidal rate of 5% or more and less than 20%). In addition, the “J (blackgrass) herbicidal effect grade” value in [14] is given as 5 (Herbicidal rate of 90% or more (almost completely withered)). Besides, in assay [15], the “N (redroot pigweed) herbicidal effect grade” value is on record as 5 (Herbicidal rate of 90% or more (almost completely withered)). Besides, the “P (chickweed) herbicidal effect grade” value in assay [16] is 5 (Herbicidal rate of 90% or more (almost completely withered)).

For the compound `CSc1ccc(-c2oc3ccc(C)cc3c2-c2c(O)c(C)nn(C)c2=O)cc1` [9-055], the “Herbicidal effect, A: late watergrass” value in assay [1] is 5 (Herbicidal rate of 90% or more (almost completely withered)). For the same compound, the “Herbicidal effect, B: Japanese bulrush” value in [2] is 4 (Herbicidal rate of 70% or more and less than 90%). The “herbicidal effect grade, B” value in assay [3] was 3 (Herbicidal rate of 40% or more and less than 70%). Besides, the “herbicidal effect grade, C” value in [4] is 3 (Herbicidal rate of 40% or more and less than 70%). In assay [5], the “F: southern crabgrass” value is 0 (Herbicidal rate of 5% or less (almost no effect)). The “H: barnyard grass” value in assay [6] was 3 (Herbicidal rate of 40% or more and less than 70%). The “I: wild oat, herbicidal effect grade” value in assay [7] is given as 0 (Herbicidal rate of 5% or less (almost no effect)). The “K: Italian ryegrass” value in assay [9] is reported as 5 (Herbicidal rate of 90% or more (almost completely withered)). In addition, in assay [10], the “N: redroot pigweed” value is reported as 5 (Herbicidal rate of 90% or more (almost completely withered)). In assay [17], the “Q: false cleavers, herbicidal effect grade” value is on record as 0 (Herbicidal rate of 5% or less (almost no effect)). The “G (green foxtail) herbicidal effect grade” value in assay [11] is 3 (Herbicidal rate of 40% or more and less than 70%). The “H (barnyard grass) herbicidal effect grade” value in assay [12] is 4 (Herbicidal rate of 70% or more and less than 90%). In addition, the “I (wild oat) herbicidal effect grade” value in assay [13] is 0 (Herbicidal rate of 5% or less (almost no effect)). Besides, in assay [14], the “J (blackgrass) herbicidal effect grade” value is on record as 5 (Herbicidal rate of 90% or more (almost completely withered)). In assay [15], the “N (redroot pigweed) herbicidal effect grade” value is listed as 5 (Herbicidal rate of 90% or more (almost completely withered)). In addition, in assay [16], the “P (chickweed) herbicidal effect grade” value is listed as 5 (Herbicidal rate of 90% or more (almost completely withered)).

For the compound `CCSc1ccc(-c2oc3ccc(C)cc3c2-c2c(O)c(C)nn(C)c2=O)cc1` [9-057], in [1], the “Herbicidal effect, A: late watergrass” value is recorded as 5 (Herbicidal rate of 90% or more (almost completely withered)). Further, in assay [2], the “Herbicidal effect, B: Japanese bulrush” value is 4 (Herbicidal rate of 70% or more and less than 90%). For the same compound, the “herbicidal effect grade, B” value in assay [3] is 3 (Herbicidal rate of 40% or more and less than 70%). The “herbicidal effect grade, C” value in [4] is 4 (Herbicidal rate of 70% or more and less than 90%). Also, the “F: southern crabgrass” value in assay [5] is 5 (Herbicidal rate of 90% or more (almost completely withered)). The “H: barnyard grass” value in assay [6] was 3 (Herbicidal rate of 40% or more and less than 70%). Moreover, the “I: wild oat, herbicidal effect grade” value in assay [7] is on record as 0 (Herbicidal rate of 5% or less (almost no effect)). For the same compound, the “J: blackgrass, herbicidal effect grade” value in assay [8] was 0 (Herbicidal rate of 5% or less (almost no effect)). In addition, the “K: Italian ryegrass” value in assay [9] was 5 (Herbicidal rate of 90% or more (almost completely withered)). Moreover, the “N: redroot pigweed” value in assay [10] was 5 (Herbicidal rate of 90% or more (almost completely withered)). In assay [11], the “G (green foxtail) herbicidal effect grade” value is given as 5 (Herbicidal rate of 90% or more (almost completely withered)). Moreover, the “H (barnyard grass) herbicidal effect grade” value in [12] was 3 (Herbicidal rate of 40% or more and less than 70%). Also, in assay [13], the “I (wild oat) herbicidal effect grade” value is 3 (Herbicidal rate of 40% or more and less than 70%). Also, the “J (blackgrass) herbicidal effect grade” value in assay [14] is listed as 5 (Herbicidal rate of 90% or more (almost completely withered)). For the same compound, in assay [15], the “N (redroot pigweed) herbicidal effect grade” value is reported as 5 (Herbicidal rate of 90% or more (almost completely withered)). The “P (chickweed) herbicidal effect grade” value in [16] is reported as 5 (Herbicidal rate of 90% or more (almost completely withered)).

In the case of `COCCOc1ccc(-c2oc3ccc(C)cc3c2-c2c(O)c(C)nn(C)c2=O)cc1` [9-063], the “Herbicidal effect, A: late watergrass” value in assay [1] is given as 5 (Herbicidal rate of 90% or more (almost completely withered)). In assay [2], the “Herbicidal effect, B: Japanese bulrush” value is 5 (Herbicidal rate of 90% or more (almost completely withered)). In addition, the “herbicidal effect grade, B” value in [3] is 4 (Herbicidal rate of 70% or more and less than 90%). Besides, the “herbicidal effect grade, C” value in assay [4] is 4 (Herbicidal rate of 70% or more and less than 90%). Moreover, the “F: southern crabgrass” value in assay [5] is recorded as 5 (Herbicidal rate of 90% or more (almost completely withered)). For the same compound, the “H: barnyard grass” value in assay [6] is 5 (Herbicidal rate of 90% or more (almost completely withered)). Also, the “I: wild oat, herbicidal effect grade” value in [7] is listed as 0 (Herbicidal rate of 5% or less (almost no effect)). In assay [8], the “J: blackgrass, herbicidal effect grade” value is on record as 5 (Herbicidal rate of 90% or more (almost completely withered)). Besides, the “K: Italian ryegrass” value in assay [9] is 5 (Herbicidal rate of 90% or more (almost completely withered)). Besides, the “N: redroot pigweed” value in [10] is listed as 5 (Herbicidal rate of 90% or more (almost completely withered)). Further, the “G (green foxtail) herbicidal effect grade” value in assay [11] was 5 (Herbicidal rate of 90% or more (almost completely withered)). In addition, in [12], the “H (barnyard grass) herbicidal effect grade” value was 5 (Herbicidal rate of 90% or more (almost completely withered)). In addition, the “I (wild oat) herbicidal effect grade” value in [13] was 1 (Herbicidal rate of 5% or more and less than 20%). In addition, the “J (blackgrass) herbicidal effect grade” value in assay [14] is on record as 5 (Herbicidal rate of 90% or more (almost completely withered)). In assay [15], the “N (redroot pigweed) herbicidal effect grade” value is 5 (Herbicidal rate of 90% or more (almost completely withered)). Besides, in [16], the “P (chickweed) herbicidal effect grade” value is 5 (Herbicidal rate of 90% or more (almost completely withered)).
